The values that follow come from patent publication US12076694B2, “Method of removing protein-bound substances by electrically conductive polymer” (Ming Chi University of Technology, priority 2019, dated 2024).

Data set [1] addresses BSA (Bos taurus, UniProt P02769). Kind of data set: Protein binding ratio by centrifugal ultrafiltration (30-kDa cutoff). To be noted: 50 ppm toxin, BSA 4-40 g L^−1 in PBS buffer.
Experimental: For the dialysis experiment of PBUT pre-bonded BSA solution, 50 ppm of targeted uremic toxins were mixed with various amount of BSA (4, 20, and 40 g L^−1) and shaken for 24 h at 37° C. Collected samples (1 mL) were purified through centrifugation (12,000×g, 25° C., 5 min) using a Vivaspin centrifuge (Vivaspin 2, 30 kDa cutoff, GE Healthcare); the PBUTs were separated into the bottom device, thereby collecting BSA proteins from the top device.
Because 4 g L^−1 BSA is closer to the normal content in mimic blood (1.5 g urea, 0.04 g L^−1 lysozyme, and 1 g L^−1 BSA), the BSA solution having the concentration of 4 g L^−1 was selected for the subsequent dialysis experiments.
For data set [2] the following is noted: comparison value for the anticoagulant; cited from earlier work.

Sequence of BSA (P02769 25-607): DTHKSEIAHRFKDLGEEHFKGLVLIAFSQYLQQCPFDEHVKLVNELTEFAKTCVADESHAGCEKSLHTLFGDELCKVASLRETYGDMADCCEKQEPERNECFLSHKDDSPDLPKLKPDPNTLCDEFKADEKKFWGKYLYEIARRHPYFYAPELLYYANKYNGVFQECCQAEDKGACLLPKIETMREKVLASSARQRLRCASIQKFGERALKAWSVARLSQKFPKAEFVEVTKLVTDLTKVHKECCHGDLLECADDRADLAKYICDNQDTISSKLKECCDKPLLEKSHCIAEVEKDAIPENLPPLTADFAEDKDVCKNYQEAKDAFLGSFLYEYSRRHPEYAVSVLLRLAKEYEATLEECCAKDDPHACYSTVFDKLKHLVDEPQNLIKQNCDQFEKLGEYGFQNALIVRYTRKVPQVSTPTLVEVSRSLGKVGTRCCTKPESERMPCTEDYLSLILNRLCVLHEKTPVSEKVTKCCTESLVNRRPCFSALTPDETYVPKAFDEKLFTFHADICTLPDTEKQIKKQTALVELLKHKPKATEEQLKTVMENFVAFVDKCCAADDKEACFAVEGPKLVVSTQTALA

Regarding `O=C(O)CNC(=O)c1ccccc1` [HA, hippuric acid], the estimated protein-binding ratio in data set [1] is on record as 18.3-36.9%.
For the compound heparin, the zeta potential in data set [2] is reported as −39 mV.
On to `CN1CC(=O)NC1=N` [CRT, creatinine], for which the estimated protein-binding ratio in data set [1] is given as 1.0-2.1%.
Same read-out and setting: the figure for `Cc1ccc(O)cc1` [PC, p-cresol] is 89.4-94.4%.
